Structures can show the parent of a compound that is named as a salt. Where two headings read alike, the source gives them in different places.
Target: Human complement C1s enzyme (Homo sapiens (Human), UniProt P09871)
Test: Human C1s enzyme assay
Type: biochemical
Details: read-out: IC50 (Stars)
How it was run: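 IC50 derived by nonlinear regression of rate versus concentration, with rate taken from A405 kinetics (30 s intervals, 30 min) after adding 100 μM each Z-L-Lys-SBzl and DTNB. C1s from human serum, 1.16 nM, exposed to compound for 5 min at RT beforehand; buffer 50 mM Tris, 1 M NaCl, pH 7.5.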

[1] = Human complement C1s enzyme 1.16 nM, substrate Z-L-Lys-SBzl 100 μM, assay of Example 3
[2] = Human C1s enzyme assay of Example 3

Sequence of Human complement C1s enzyme (P09871 438-688 limits assumed): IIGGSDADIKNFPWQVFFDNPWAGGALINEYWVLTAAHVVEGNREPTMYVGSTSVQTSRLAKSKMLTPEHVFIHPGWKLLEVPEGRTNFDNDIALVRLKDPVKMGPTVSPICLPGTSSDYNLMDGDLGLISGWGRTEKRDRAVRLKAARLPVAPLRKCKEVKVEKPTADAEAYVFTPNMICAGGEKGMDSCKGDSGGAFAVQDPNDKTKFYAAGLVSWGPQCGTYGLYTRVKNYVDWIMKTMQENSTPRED
Sequence of Human complement C1s enzyme (P09871 16-437 partner limits assumed): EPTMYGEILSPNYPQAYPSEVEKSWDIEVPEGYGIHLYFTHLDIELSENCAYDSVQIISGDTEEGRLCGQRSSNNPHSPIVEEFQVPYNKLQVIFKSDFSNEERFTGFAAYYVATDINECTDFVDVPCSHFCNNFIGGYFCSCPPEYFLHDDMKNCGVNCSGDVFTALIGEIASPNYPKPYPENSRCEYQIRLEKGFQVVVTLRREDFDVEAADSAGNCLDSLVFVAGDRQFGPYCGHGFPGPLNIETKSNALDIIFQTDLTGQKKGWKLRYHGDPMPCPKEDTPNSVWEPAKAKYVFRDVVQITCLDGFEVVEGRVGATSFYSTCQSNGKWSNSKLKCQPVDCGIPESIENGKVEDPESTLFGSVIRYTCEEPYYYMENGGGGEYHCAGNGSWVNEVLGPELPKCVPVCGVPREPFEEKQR

| Compound | IC50 [1] [nM] | IC50 [2] [nM] | other results |
| --- | --- | --- | --- |
| C[C@@H](NC(=O)[C@@H]1CC2(CN1C(=O)CNC(=O)c1cccc(-c3ccccc3)c1)OCCO2)c1cc(C(=N)N)cs1 [Compound 109, (S)-7-(([1,1′-biphenyl]-3-carbonyl)glycyl)-N—((R)-1-(4-carbamimidoylthiophen-2-yl)ethyl)-1,4-dioxa-7-azaspiro[4.4]nonane-8-carboxamide] | – | < 100 | – |
| C[C@@H](NC(=O)[C@@H]1C[C@@H](OC(F)F)CN1C(=O)CNC(=O)c1ccc(Oc2ccc(F)cc2)cc1)c1cc(-c2ncc[nH]2)cs1 [Compound 86, (2S,4R)—N—((R)-1-(4-(1H-imidazol-2-yl)thiophen-2-yl)ethyl)-4-(difluoromethoxy)-1-((4-(4-fluorophenoxy)benzoyl)glycyl)pyrrolidine-2-carboxamide] | – | < 100 | – |
| COC[C@@]1(F)C[C@@H](C(=O)N[C@H](C)c2cc(C(=N)N)cs2)N(C(=O)CNC(=O)c2ccc(Oc3ccc(C)cc3)cc2)C1 [Compound 19, (2S,4R)—N—((R)-1-(4-carbamimidoylthiophen-2-yl)ethyl)-4-fluoro-4-(methoxymethyl)-1-((4-(p-tolyloxy)benzoyl)glycyl)pyrrolidine-2-carboxamide] | – | < 100 | – |
| C[C@@H](NC(=O)[C@@H]1C[C@](F)(CF)CN1C(=O)CNC(=O)c1ccc2c(c1)-c1ccccc1C2(C)C)c1cc(C(=N)N)cs1 [Compound 153, (2S,4R)—N—((R)-1-(4-carbamimidoylthiophen-2-yl)ethyl)-1-((9,9-dimethyl-9H-fluorene-3-carbonyl)glycyl)-4-fluoro-4-(fluoromethyl)pyrrolidine-2-carboxamide] | – | < 100 | – |
| C[C@@H](NC(=O)[C@@H]1CC2(CN1C(=O)CNC(=O)c1ccc3c(c1)-c1ccccc1C3(C)C)OCCO2)c1cc(C(=N)N)cs1 [Compound 94, (S)—N—((R)-1-(4-carbamimidoylthiophen-2-yl)ethyl)-7-((9,9-dimethyl-9H-fluorene-3-carbonyl)glycyl)-1,4-dioxa-7-azaspiro[4.4]nonane-8-carboxamide] | – | < 100 | – |
| COC[C@@]12C[C@@H]1N(C(=O)CNC(=O)c1ccc3c(c1)-c1ccccc1C3(F)F)[C@H](C(=O)N[C@H](C)c1cc(C(=N)N)cs1)C2 [Compound 72, (1S,3S,5R)—N—((R)-1-(4-carbamimidoylthiophen-2-yl)ethyl)-2-((9,9-difluoro-9H-fluorene-3-carbonyl)glycyl)-5-(methoxymethyl)-2-azabicyclo[3.1.0]hexane-3-carboxamide] | – | < 100 | – |
| O=C(NCC(=O)N1CC2(C[C@H]1C(=O)NCc1cc(-c3ncc[nH]3)cs1)OCCO2)c1ccc(Oc2ccc(F)cc2)cc1 [Compound 157, (S)-N-((4-(1H-imidazol-2-yl)thiophen-2-yl)methyl)-7-((4-(4-fluorophenoxy)benzoyl)glycyl)-1,4-dioxa-7-azaspiro[4.4]nonane-8-carboxamide] | – | > 1000 | – |
| C[C@@H](NC(=O)[C@@H]1C[C@H](c2nccs2)CN1C(=O)CNC(=O)c1ccc(Oc2ccc(F)cc2)cc1)c1cc(C(=N)N)cs1 [Compound 171, (2S,4S)—N—((R)-1-(4-carbamimidoylthiophen-2-yl)ethyl)-1-((4-(4-fluorophenoxy)benzoyl)glycyl)-4-(thiazol-2-yl)pyrrolidine-2-carboxamide] | – | < 100 | – |
| COC[C@@]12C[C@@H]1N(C(=O)CNC(=O)c1ccc(Oc3ccc(F)cc3)cc1)[C@H](C(=O)N[C@H](C)c1cc(C(=N)N)cs1)C2 [Compound 44, (1S,3S,5R)—N—((R)-1-(4-carbamimidoylthiophen-2-yl)ethyl)-2-((4-(4-fluorophenoxy)benzoyl)glycyl)-5-(methoxymethyl)-2-azabicyclo[3.1.0]hexane-3-carboxamide] | – | < 100 | – |
| Cc1ccc(-c2cccc(C(=O)NCC(=O)N3CC4(C[C@H]3C(=O)N[C@H](C)c3cc(C(=N)N)cs3)OCCO4)c2)cc1 [Compound 120, (S)—N—((R)-1-(4-carbamimidoylthiophen-2-yl)ethyl)-7-((4′-methyl-[1,1′-biphenyl]-3-carbonyl)glycyl)-1,4-dioxa-7-azaspiro[4.4]nonane-8-carboxamide] | – | < 100 | – |
| N=C(N)c1cc(CNC(=O)[C@@H]2CC3(CN2C(=O)CNC(=O)c2ccc(-c4ccc(F)cc4F)cc2)OCCO3)cs1 [Compound 155, (S)-N-((5-carbamimidoylthiophen-3-yl)methyl)-7-((2′,4′-difluoro-[1,1′-biphenyl]-4-carbonyl)glycyl)-1,4-dioxa-7-azaspiro[4.4]nonane-8-carboxamide] | – | < 100 | – |
| C[C@@H](NC(=O)[C@@H]1C[C@]2(CO)C[C@@H]2N1C(=O)CNC(=O)c1ccc2c(c1)-c1ccccc1C2(F)F)c1cc(C(=N)N)cs1 [Compound 53, (1S,3S,5R)—N—((R)-1-(4-carbamimidoylthiophen-2-yl)ethyl)-2-((9,9-difluoro-9H-fluorene-3-carbonyl)glycyl)-5-(hydroxymethyl)-2-azabicyclo [3.1.0]hexane-3-carboxamide] | – | < 100 | – |
| N=C(N)c1csc([C@@H](CO)NC(=O)[C@@H]2C[C@@H](OC(F)F)CN2C(=O)CNC(=O)c2ccc3c(c2)-c2ccccc2C3(F)F)c1 [Compound 403, (2S,4R)—N—((R)-1-(4-carbamimidoylthiophen-2-yl)-2-hydroxyethyl)-1-((9,9-difluoro-9H-fluorene-3-carbonyl)glycyl)-4-(difluoromethoxy) pyrrolidine-2-carboxamide] | – | – | IC50 (Human complement C1s enzyme 1.16 nM, substrate Z-L-Lys-SBzl, assay of Example 3): < 100 nM |
| C[C@@H](NC(=O)[C@@H]1C[C@@H](OC(F)F)CN1C(=O)CNC(=O)c1ccc(Oc2ccc(C3CC3)cc2)cc1)c1cc(C(=N)N)cs1 [Compound 64, (2S,4R)—N—((R)-1-(4-carbamimidoylthiophen-2-yl)ethyl)-1-((4-(4-cyclopropylphenoxy)benzoyl)glycyl)-4-(difluoromethoxy)pyrrolidine-2-carboxamide hydrochloride] | – | < 100 | – |

Continued, in another order:

| IC50 [1] [nM] | IC50 [2] [nM] | Compound | other results |
| --- | --- | --- | --- |
| < 100 | – | CC1(C)c2ccccc2-c2cc(C(=O)NCC(=O)N3C[C@H](S(C)(=O)=O)C[C@H]3C(=O)N[C@H](CO)c3cc(C(=N)N)cs3)ccc21 [Compound 380, (2S,4R)—N—((R)-1-(4-carbamimidoylthiophen-2-yl)-2-hydroxyethyl)-1-((9,9-dimethyl-9H-fluorene-3-carbonyl)glycyl)-4-(methylsulfonyl) pyrrolidine-2-carboxamide] | – |
| < 100 | – | C[C@H](NC(=O)c1ccc(-c2ccc(F)cc2F)cc1)C(=O)N1CC2(C[C@H]1C(=O)NCc1cc(C(=N)N)cs1)OCCO2 [Compound 291, (S)—N-((4-carbamimidoylthiophen-2-yl)methyl)-7-((2′,4′-difluoro-[1,1′-biphenyl]-4-carbonyl)-L-alanyl)-1,4-dioxa-7-azaspiro[4.4]nonane-8-carboxamide] | – |
| < 100 | – | COC(=O)/N=C(/N)c1csc([C@@H](C)NC(=O)[C@@H]2C[C@](F)(CF)CN2C(=O)CNC(=O)c2ccc3c(c2)-c2ccccc2C3(F)F)c1 [Compound 250, methyl ((E)-amino(5-((R)-1-((2S,4R)-1-((9,9-difluoro-9H-fluorene-3-carbonyl)glycyl)-4-fluoro-4-(fluoromethyl)pyrrolidine-2-carboxamido)ethyl)thiophen-3-yl)methylene)carbamate] | – |
| < 100 | – | C[C@@H](NC(=O)[C@@H]1C[C@H](c2cccnc2)CN1C(=O)CNC(=O)c1ccc2c(c1)-c1ccccc1C2(F)F)c1cc(C(=N)N)cs1 [Compound 355, (2S,4R)—N—((R)-1-(4-carbamimidoylthiophen-2-yl)ethyl)-1-((9,9-difluoro-9H-fluorene-3-carbonyl)glycyl)-4-(pyridin-3-yl)pyrrolidine-2-carboxamide] | – |
| > 1000 | – | Nc1c(Nc2csc(CNC(=O)[C@@H]3CC4(CN3C(=O)CNC(=O)c3ccc(Oc5ccc(F)cc5)cc3)OCCO4)c2)c(=O)c1=O [Compound 319, (S)-N-((4-((2-amino-3,4-dioxocyclobut-1-en-1-yl)amino)thiophen-2-yl)methyl)-7-((4-(4-fluorophenoxy)benzoyl)glycyl)-1,4-dioxa-7-azaspiro[4.4]nonane-8-carboxamide] | – |
| – | < 100 | C[C@@H](NC(=O)[C@@H]1C[C@H](c2nccs2)CN1C(=O)CNC(=O)c1ccc2c(c1)-c1ccccc1C2(F)F)c1cc(C(=N)N)cs1 [Compound 172, (2S,4S)—N—((R)-1-(4-carbamimidoylthiophen-2-yl)ethyl)-1-((9,9-difluoro-9H-fluorene-3-carbonyl)glycyl)-4-(thiazol-2-yl)pyrrolidine-2-carboxamide] | – |
| < 100 | – | C[C@@H](NC(=O)c1ccc(-c2ccc(F)cc2F)cc1)C(=O)N1CC2(C[C@H]1C(=O)NCc1cc(C(=N)N)cs1)OCCO2 [Compound 301, (S)—N-((4-carbamimidoylthiophen-2-yl)methyl)-7-((2′,4′-difluoro-[1,1′-biphenyl]-4-carbonyl)-D-alanyl)-1,4-dioxa-7-azaspiro[4.4]nonane-8-carboxamide] | – |
| < 100 | – | CC1c2ccccc2-c2ccc(C(=O)NCC(=O)N3C[C@H](S(C)(=O)=O)C[C@H]3C(=O)N[C@H](C)c3cc(C(=N)N)cs3)cc21 (stereo partly drawn) [Compound 390, (2S,4R)—N—((R)-1-(4-carbamimidoylthiophen-2-yl)ethyl)-1-((9-methyl-9H-fluorene-2-carbonyl)glycyl)-4-(methylsulfonyl)pyrrolidine-2-carboxamide] | – |
| < 100 | – | C[C@@H](NC(=O)[C@@H]1C[C@@H](OC(F)F)CN1C(=O)CNC(=O)c1ccc2c(c1)S(=O)(=O)c1ccccc1-2)c1cc(C(=N)N)cs1 [Compound 362, (2S,4R)—N—((R)-1-(4-carbamimidoylthiophen-2-yl)ethyl)-4-(difluoromethoxy)-1-((5,5-dioxidodibenzo[b,d]thiophene-3-carbonyl)glycyl) pyrrolidine-2-carboxamide] | – |
| < 100 | – | C[C@@H](NC(=O)[C@@H]1C[C@](F)(CF)CN1C(=O)CNC(=O)c1ccc2cc3ccccc3cc2c1)c1cc(C(=N)N)cs1 [Compound 235, (2S,4R)-1-((anthracene-2-carbonyl)glycyl)-N—((R)-1-(4-carbamimidoylthiophen-2-yl)ethyl)-4-fluoro-4-(fluoromethyl)pyrrolidine-2-carboxamide] | – |

Source: patent US20250346585A1 (Alexion Pharmaceuticals, Inc., priority 2022, published 2025)
